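Tested at 5 concentrations; 48 h exposure; 96-well plates; endpoints linearly interpolated, else capped at highest concentration. At the GI50, growth is halved.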 Active and inactive are the calls of the source. Cut-off read from the data, not from the text of the source: active = GI50 up to about 1.1 µM and inactive = higher.
Tests used:
Test in all cases: NCI tumour cell line growth inhibition, 48 h
[1] = test system: SNB-75
[2] = test system: MDA-MB-435
[3] = test system: UO-31
[4] = test system: EKVX
[5] = test system: MCF7
[6] = test system: DU-145
[7] = test system: UACC-257
[8] = test system: NCI-H460
[9] = test system: HL-60
[10] = test system: NCI-H226
[11] = test system: HOP-62
[12] = test system: HCT-116
[13] = test system: ACHN
[14] = test system: A549
[15] = test system: NCI-H522
[16] = test system: SK-MEL-2
[17] = test system: U-251
[18] = test system: LOX IMVI
[19] = test system: CCRF-CEM
[20] = test system: SF-295
[21] = test system: CAKI-1
[22] = test system: MDA-N
[23] = test system: KM12
[24] = test system: TK-10
[25] = test system: NCI/ADR-RES
[26] = test system: SK-OV-3
[27] = test system: NCI-H23
[28] = test system: HT-29
[29] = test system: HOP-92
[30] = test system: MDA-MB-231
[31] = test system: 786-0
[32] = test system: SF-268
[33] = test system: M14
[34] = test system: SW-620
[35] = test system: IGROV-1
[36] = test system: OVCAR-5
[37] = test system: MOLT-4
[38] = test system: Hs-578T
[39] = test system: BT-549
[40] = test system: HCT-15
[41] = test system: COLO 205
[42] = test system: SK-MEL-5
[43] = test system: SNB-19
[44] = test system: PC-3
[45] = test system: OVCAR-4
[46] = test system: OVCAR-8
[47] = test system: A498
[48] = test system: SN12C
[49] = test system: UACC-62
[50] = test system: RXF 393
[51] = test system: SK-MEL-28
[52] = test system: OVCAR-3
[53] = test system: SF-539
[54] = test system: T47D
[55] = test system: K562
[56] = test system: Malme-3M
[57] = test system: RPMI-8226
[58] = test system: HCC 2998

`COc1ccc(-c2nc(-c3ccc(OC)cc3)n(-c3ccccc3)n2)cc1` was tested, and the GI50 [1] was > 100 µM (inactive), the GI50 [2] was > 100 µM (inactive) and the GI50 [3] was 21.6 µM (inactive). For the same compound, the GI50 [4] was 56.4 µM (inactive), the GI50 [5] was > 100 µM (inactive) and the GI50 [6] was > 100 µM (inactive). The GI50 [7] was > 100 µM (inactive), the GI50 [8] was > 100 µM (inactive) and the GI50 [9] was 30.5 µM (inactive). The GI50 [10] was > 100 µM (inactive), the GI50 [11] was > 100 µM (inactive) and the GI50 [12] was > 100 µM (inactive). The GI50 [13] was > 100 µM (inactive), the GI50 [14] was 56.6 µM (inactive) and the GI50 [15] was 11.8 µM (inactive). For the same compound, the GI50 [16] was > 100 µM (inactive), the GI50 [17] was 78.9 µM (inactive) and the GI50 [18] was 41.1 µM (inactive). The GI50 [19] was > 100 µM (inactive), the GI50 [20] was > 100 µM (inactive) and the GI50 [21] was > 100 µM (inactive). For the same compound, the GI50 [22] was > 100 µM (inactive), the GI50 [23] was 40.2 µM (inactive) and the GI50 [24] was > 100 µM (inactive). The GI50 [25] was > 100 µM (inactive), the GI50 [26] was > 100 µM (inactive) and the GI50 [27] was 39.4 µM (inactive). The GI50 [28] was 19.9 µM (inactive), the GI50 [29] was 52 µM (inactive) and the GI50 [30] was 50.2 µM (inactive). The GI50 [31] was > 100 µM (inactive), the GI50 [32] was > 100 µM (inactive) and the GI50 [33] was 68.7 µM (inactive). For the same compound, the GI50 [34] was > 100 µM (inactive), the GI50 [35] was > 100 µM (inactive) and the GI50 [36] was > 100 µM (inactive). The GI50 [37] was 16.1 µM (inactive), the GI50 [38] was > 100 µM (inactive) and the GI50 [39] was 38.5 µM (inactive). The GI50 [40] was > 100 µM, the GI50 [41] was 46.9 µM (inactive) and the GI50 [42] was 54.1 µM (inactive). The GI50 [43] was 57.8 µM (inactive), the GI50 [44] was > 100 µM (inactive) and the GI50 [45] was 31.7 µM (inactive). For the same compound, the GI50 [46] was > 100 µM (inactive), the GI50 [47] was 45.7 µM (inactive) and the GI50 [48] was > 100 µM (inactive). The GI50 [49] was 86.5 µM (inactive), the GI50 [50] was 32.8 µM (inactive) and the GI50 [51] was > 100 µM (inactive). The GI50 [52] was 46.8 µM (inactive), the GI50 [53] was > 100 µM (inactive) and the GI50 [54] was 22.9 µM (inactive).

In the case of `COc1cc2c[n+](C)c3c4ccccc4ccc3c2cc1OC`, the GI50 [1] is reported as 5.89 µM (inactive), the GI50 [2] is reported as 3.83 µM (inactive) and the GI50 [3] is reported as > 75.5 µM (inactive). For the same compound, the GI50 [4] was 2.54 µM (inactive), the GI50 [5] was 3.66 µM (inactive) and the GI50 [6] was 3.8 µM (inactive). The GI50 [7] was 3.73 µM (inactive), the GI50 [8] was 10 µM (inactive) and the GI50 [55] was 1.4 µM (inactive). For the same compound, the GI50 [10] was 2.94 µM (inactive), the GI50 [11] was 18.6 µM (inactive) and the GI50 [12] was 3.95 µM (inactive). The GI50 [13] was 35.9 µM (inactive), the GI50 [14] was 0.845 µM (active) and the GI50 [15] was 0.302 µM (active). The GI50 [16] was 5.69 µM (inactive), the GI50 [17] was 0.726 µM (active) and the GI50 [18] was 12.9 µM (inactive). The GI50 [19] was 6.5 µM (inactive), the GI50 [20] was 16.9 µM (inactive) and the GI50 [21] was 55.3 µM (inactive). The GI50 [22] was 4.45 µM (inactive), the GI50 [23] was 0.452 µM (active) and the GI50 [24] was 26.7 µM (inactive). For the same compound, the GI50 [25] was > 100 µM (inactive), the GI50 [26] was 6.08 µM (inactive) and the GI50 [27] was 2.6 µM (inactive). For the same compound, the GI50 [28] was 5.4 µM (inactive), the GI50 [30] was 5.05 µM (inactive) and the GI50 [31] was 8.65 µM (inactive). The GI50 [32] was 0.224 µM (active), the GI50 [33] was 18.1 µM (inactive) and the GI50 [34] was 1.95 µM (inactive). For the same compound, the GI50 [36] was 26.7 µM (inactive), the GI50 [37] was 0.422 µM (active) and the GI50 [38] was 2.51 µM (inactive). The GI50 [39] was 2.92 µM (inactive), the GI50 [40] was > 100 µM and the GI50 [41] was 0.991 µM (active). For the same compound, the GI50 [56] was 1.55 µM (inactive), the GI50 [42] was 2.87 µM (inactive) and the GI50 [43] was 2.44 µM (inactive). The GI50 [57] was 3.05 µM (inactive), the GI50 [44] was 4.89 µM (inactive) and the GI50 [58] was 4.81 µM (inactive). For the same compound, the GI50 [45] was 9.4 µM (inactive), the GI50 [46] was 2.71 µM (inactive) and the GI50 [47] was 37.4 µM (inactive). For the same compound, the GI50 [48] was 1.32 µM (inactive), the GI50 [49] was 4.6 µM (inactive) and the GI50 [50] was 14.6 µM (inactive). The GI50 [51] was 3.42 µM (inactive), the GI50 [52] was 6.05 µM (inactive) and the GI50 [53] was 6.17 µM (inactive). The GI50 [54] was 2.06 µM (inactive).

Reference: ChEMBL document CHEMBL1201862, “PubChem BioAssay data set” (2004)
